Assay results reported in EP0426075A1, “Benzylpyrrolidine derivatives as dopamine agonists” (SYNTEX (U.S.A.) INC., priority 1989, dated 1991).

Key:
[1] = tested on: saline-loaded spontaneously hypertensive rat (SHR); assay: Spontaneous Hypertensive Rat - diuretic activity, saline-loaded, oral; format: in vivo; conditions: for Urine K^+ (mEq/sample) / Urine Na^+ (mEq/sample) / Urine Volume: n = 7, mean ± S.D.
Protocol: Additionally, these compounds were examined for diuretic activity for 6 hours following oral compound administration in the saline-loaded spontaneously hypertensive rat (SHR). Methods for this assay have been previously described (Rosenkranz, et al, Proc. West. Pharmacol. Soc. 28 :87, 1985). The diuretic and natriuretic effects elicited by these compounds were characterized by an immediate onset of action.
The compounds of this invention were examined for diuretic activity for 6 hours following oral compound administration in the saline-loaded spontaneously hypertensive rat (SHR). Methods for this assay have been previously described (Rosenkranz, et al, Proc. West. Pharmacol. Soc. 28 :87, 1985). The diuretic and natriuretic effects elicited by these compounds were characterized by an immediate onset of action.
Male spontaneously hypertensive SHR/NCrIBR rats weighing 320-430 gms were divided into four groups of seven animals. All animals were food- and water-deprived overnight. The following morning, each group of rats was hydrated with deionized water (20 ml/kg, po) forty-five minutes prior to the administration of vehicle or the test compounds.
Following vehicle or drug, the rats were placed in individual metabolic units. Fifteen minutes post-dose the animals were saline-loaded (30 ml/kg, po). Urine was collected at 1, 3 and 6 hour intervals post-saline- load. Urine volumes were measured and sodium and potassium levels were determined by flame photometry.
A two-way analysis of variance with time, treatment and their interaction was run as a repeated measures analysis. A secondary model of one-way analysis of variance (by time) was run using specified contrasts. The p-values for the contrasts were adjusted using Fisher's LSD strategy at each time point.

[2] = tested on: DA2 receptor; assay: Goldberg in situ femoral arterial preparation (DA2 assay), intra-arterial injection; format: in vivo, dog; conditions: for ED50: blood flow increase, i.a. bolus into femoral artery, anesthetized dog; for Relative Efficacy to DA2 Standard: optimal response of test compound divided by optimal response of DPDA; for Relative Potency to DA2 Standard: standard (DPDA) ED50 divided by test compound ED50
Protocol: (§1) The compounds were subsequently tested following intra-arterial administration in an in situ renal and femoral arterial preparation in the dog, as developed by L.I. Goldberg, to test for DA1 and DA2 dopamine activity, respectively. Details of the methodology are provided in the European J. Pharmacol. 89 :137, 1983, as well as in Hypertension 6 :1-25, 1984.
as §1, with “compounds of this invention” for “compounds”, “were” for “were subsequently”, “Pharmacol. ,” for “Pharmacol.”, “Hypertension ,” for “Hypertension”, “1984. J. L. McNay, L. I. Goldberg JPET 151 :23-31, 1966.” for “1984.”
(§2) The compounds were injected directly into the renal or femoral artery for analysis of DA, or DA2 activity, respectively. […] The compounds were tested for relative activity in comparison to the standard DA, agonist, dopamine or the standard DA2 agonist, DPDA. Specific DA, or DA2 activity of the tested compound was verified by Sch 23390 or domperidone blockade.
Adult mongrel dogs of either sex (12-20 kg) were anesthetized with pentobarbital sodium (33 mg/kg, i.v.). The animals were intubated and ventilated with room air using a Harvard respirator.
as §1, with “compounds of this invention” for “compounds”, “were” for “were subsequently”, “Pharmacol. ,” for “Pharmacol.”, “Hypertension ,” for “Hypertension”, “1984. J. L. McNay, L. I. Goldberg JPET 151 :23-31, 1966” for “1984.”
as §2, with “of DA1” for “of DA,”, “standard DA1” for “standard DA,”
The thoracic aorta was catheterized with a Millar micro-tip (size 5F) transducer via the right carotid artery for blood pressure monitoring. The right external jugular vein was cannulated with PE-160 tubing for supplemental pentobarbital administration. The left femoral artery was isolated and an electromagnetic flowprobe of the appropriate size (8-11 mm circ.) was placed around the artery and connected to a Caroline Medical electromagnetic flowmeter. Surface ECG leads were placed subcutaneously on the chest and limbs to monitor heart rate. A 25 gauge 3/4" needle bent 90` , 4 mm from the tip, was placed in the femoral artery proximal to the probe and connected to an infusion pump delivering saline at a constant rate of 1 ml/min. Following a saline and bradykinin challenge (0.02 to 0.04 nmoles, in 0.2 ml saline, i.a.), a dose response curve for DPDA was generated by injecting 4-fold increasing doses i.a. ranging from 3 to 48 nmoles in 0.2 ml saline. Test compounds were injected similarly in 4-fold increasing doses up to 3000 nmoles. Compounds were then repeated at their optimal dose following domperidone pretreatment (10-40 Ilg/kg, iv).
Efficacy ratios were determined by division of the optimal response of the test compound by the optimal response of the standard agent. The optimal dose of compound was defined as that which produced a maximum increase in blood flow before causing a change in systemic blood pressure. ED50 values were derived by regression analysis from individually generated dose response curves. Potency ratios were the quotients calculated from the division of the standard agent EDso by the ED50 of the test compound. […] If the inhibition of the test compound was similar to that of dopamine or DPDA, the compound was considered to be a DA, or DA2 agonist, respectively.

[3] = po 3 mg/kg, cumulative time 1 hr
[4] = po 3 mg/kg, cumulative time 3 hr
[5] = po 3 mg/kg, cumulative time 6 hr
[6] = po 10 mg/kg, cumulative time 1 hr
[7] = po 10 mg/kg, cumulative time 3 hr
[8] = po 10 mg/kg, cumulative time 6 hr
[9] = po 30 mg/kg, cumulative time 1 hr
[10] = po 30 mg/kg, cumulative time 3 hr
[11] = po 30 mg/kg, cumulative time 6 hr

Br.Br.CCCN(CCCCCCN1CCC[C@@H]1Cc1ccc(O)c(O)c1)CCc1ccc(O)cc1 [Test Compound 1, (R)-2-(3,4-dihydroxybenzyl)-1-[6-(N-(4-hydroxyphenethyl)-N-propylamino)hexyl]pyrrolidine dihydrobromide]
kaliuresis ([1]; 30 mg/kg, po, 1, 3, and 6 hour post-dose time points): significant kaliuresis | Urine K^+ (mEq/sample) [1, 3]: 0.03±0.04 mEq/sample | Urine Na^+ (mEq/sample) [1, 3]: 0.02±0.02 mEq/sample | Urine Volume [1, 3]: 4.6 ± 1.9 mL | Urine K^+ (mEq/sample) [1, 4]: 0.11±0.05 mEq/sample | Urine Na^+ (mEq/sample) [1, 4]: 0.07±0.03 mEq/sample | Urine Volume [1, 4]: 7.8 ± 1.4 mL | Urine K^+ (mEq/sample) [1, 5]: 0.20±0.07 mEq/sample | Urine Na^+ (mEq/sample) [1, 5]: 0.25±0.10 mEq/sample | Urine Volume [1, 5]: 9.4 ± 1.8 mL | Urine K^+ (mEq/sample) [1, 6]: 0.06±0.03 mEq/sample | Urine Na^+ (mEq/sample) [1, 6]: 0.28±0.13 mEq/sample | Urine Volume [1, 6]: 9.9 ± 3.6 mL | Urine K^+ (mEq/sample) [1, 7]: 0.16±0.08 mEq/sample | Urine Na^+ (mEq/sample) [1, 7]: 0.51±0.22 mEq/sample | Urine Volume [1, 7]: 11.4 ± 3.9 mL | Urine K^+ (mEq/sample) [1, 8]: 0.22±0.11 mEq/sample | Urine Na^+ (mEq/sample) [1, 8]: 0.51±0.27 mEq/sample | Urine Volume [1, 8]: 11.8 ± 3.9 mL | Urine K^+ (mEq/sample) [1, 9]: 0.07±0.02 mEq/sample | Urine Na^+ (mEq/sample) [1, 9]: 0.61±0.16 mEq/sample | Urine Volume [1, 9]: 14.7 ± 2.3 mL | Urine K^+ (mEq/sample) [1, 10]: 0.24±0.05 mEq/sample | Urine Na^+ (mEq/sample) [1, 10]: 1.13±0.25 mEq/sample | Urine Volume [1, 10]: 18.6 ± 2.8 mL | Urine K^+ (mEq/sample) [1, 11]: 0.31±0.06 mEq/sample | Urine Na^+ (mEq/sample) [1, 11]: 1.31±0.27 mEq/sample | Urine Volume [1, 11]: 19.3 ± 2.7 mL | ED50 [2]: 0.02 nmol | Relative Efficacy to DA2 Standard [2]: 1.29 | Relative Potency to DA2 Standard [2]: 327.50

Br.Br.CCCN(CCCCCCN1CCC[C@@H]1Cc1ccc(O)c(O)c1)CCc1cccc(O)c1 [Test Compound 2, (R)-2-(3,4-dihydroxybenzyl)-1-[6-(N-(3-hydroxyphenethyl)-N-propylamino)hexyl]pyrrolidine dihydrobromide]
Urine K^+ (mEq/sample) [1, 3]: 0.02±0.01 mEq/sample | Urine Na^+ (mEq/sample) [1, 3]: 0.00±0.00 mEq/sample | Urine Volume [1, 3]: 5.2 ± 1.4 mL | Urine K^+ (mEq/sample) [1, 4]: 0.09±0.04 mEq/sample | Urine Na^+ (mEq/sample) [1, 4]: 0.06±0.04 mEq/sample | Urine Volume [1, 4]: 7.9 ± 0.7 mL | Urine K^+ (mEq/sample) [1, 5]: 0.17±0.05 mEq/sample | Urine Na^+ (mEq/sample) [1, 5]: 0.19±0.07 mEq/sample | Urine Volume [1, 5]: 9.1 ± 0.8 mL | Urine K^+ (mEq/sample) [1, 6]: 0.02±0.01 mEq/sample | Urine Na^+ (mEq/sample) [1, 6]: 0.09±0.05 mEq/sample | Urine Volume [1, 6]: 8.9 ± 1.6 mL | Urine K^+ (mEq/sample) [1, 7]: 0.10±0.06 mEq/sample | Urine Na^+ (mEq/sample) [1, 7]: 0.26±0.12 mEq/sample | Urine Volume [1, 7]: 11.2 ± 2.0 mL | Urine K^+ (mEq/sample) [1, 8]: 0.13±0.09 mEq/sample | Urine Na^+ (mEq/sample) [1, 8]: 0.31±0.17 mEq/sample | Urine Volume [1, 8]: 11.7 ± 2.4 mL | Urine K^+ (mEq/sample) [1, 9]: 0.03±0.02 mEq/sample | Urine Na^+ (mEq/sample) [1, 9]: 0.16±0.05 mEq/sample | Urine Volume [1, 9]: 13.0 ± 2.2 mL | Urine K^+ (mEq/sample) [1, 10]: 0.13±0.07 mEq/sample | Urine Na^+ (mEq/sample) [1, 10]: 0.40±0.12 mEq/sample | Urine Volume [1, 10]: 15.7 ± 2.1 mL | Urine K^+ (mEq/sample) [1, 11]: 0.17±0.09 mEq/sample | Urine Na^+ (mEq/sample) [1, 11]: 1.45±0.12 mEq/sample | Urine Volume [1, 11]: 15.9 ± 2.1 mL | ED50 [2]: 0.04 nmol | Relative Efficacy to DA2 Standard [2]: 1.26 | Relative Potency to DA2 Standard [2]: 216.00
